What was measured:
Assay type in all cases: binding
[1] = test system: double-stranded hairpin DNA: 5′-d(GGCAGAAGAAAAAGAGACGC)-C18 spacer-d(GCGTCTCTTTTTCTTCTGCC)-3′ (SEQ ID NO: 23); test: Melting temperature (Tm) measurement, triple strand-forming ability, with double-stranded hairpin DNA; conditions: triplex with double-stranded hairpin DNA; for Tm: footnote: 10 mM sodium phosphate buffer (pH 7.0), 200 mM NaCl, 5 mM MgCl2; for ΔTm/mod.: change per modification vs natural oligonucleotide
Procedure: […] The sample solution was cooled to 15° C., and the measurement was started. The temperature was raised to 90° C. at a rate of 0.5° C. per minute, and the absorbance at 260 nm was plotted at intervals of 0.5° C. All Tm values were calculated by the midline method and the average of three independent measurement results was taken.

[2] = test system: single-stranded RNA: 5′-r(ACGAGAACAUCC)-3′ (SEQ ID NO: 11); test: Melting temperature (Tm) measurement, double strand-forming ability, with single-stranded RNA; conditions: duplex with single-stranded RNA SEQ ID NO: 11; for Tm: 10 mM phosphate buffer (pH7.0), 200 mM NaCl, 2.5 μM each oligonucleotide; for ΔTm/mod.: change per modification vs natural oligonucleotide
Procedure: (§1) A sample solution ([…]) with final concentrations of 10 mM phosphate buffer (pH7.0), 200 mM sodium chloride, and 2.5 μM each oligonucleotide was immersed in boiling water and slowly cooled to room temperature. The sample solution was cooled to 20° C., and the measurement was started. The temperature was raised to 90° C. at a rate of 0.5° C. per minute, and the absorbance at 260 nm was plotted at intervals of 0.5° C. All Tm values were calculated by the midline method and the average of three independent measurement results was taken.
(§2) conditions: 10 mM sodium phosphate buffer (pH7.0) containing 200 mM NaCl, […] of each strand

[3] = test system: single-stranded DNA: 5′-d(ACGAGAACATCC)-3′ (SEQ ID NO: 12); test: Melting temperature (Tm) measurement, double strand-forming ability, with single-stranded DNA; conditions: duplex with single-stranded DNA SEQ ID NO: 12; for Tm: 10 mM phosphate buffer (pH7.0), 200 mM NaCl, 2.5 μM each oligonucleotide; for ΔTm/mod.: change per modification vs natural oligonucleotide
Procedure: as §1, §2

5′ -TCTTCTTTTTCTCT-3′: unmodified triplex-forming oligonucleotide; C shows 2′-deoxy-5-methylcytidine (DNA, all C 5-methyl, backbone not given here; triplex-forming oligonucleotide)
Tm [1]: 31 °C

5′ -TCTTCTTXTTCTCT-3′: modified oligonucleotide with one X modification; C shows 2′-deoxy-5-methylcytidine (DNA TCTTCTTTTTCTCT; X modified nucleotide; 5-methylcytidines; (2)..(2) 2′-Deoxy-5-methylcytidine; (5)..(5) 2′-Deoxy-5-methylcytidine; misc_difference (8)..(8) Me-TaNA; (11)..(11) 2′-Deoxy-5-methylcytidine; (13)..(13) 2′-Deoxy-5-methylcytidine)
ΔTm/mod. [1]: +5.0 °C | Tm [1]: 36 °C

5′ -TCTTCTTYTTCTCT-3′: modified oligonucleotide with one Y modification; C shows 2′-deoxy-5-methylcytidine (DNA TCTTCTTTTTCTCT; Y modified nucleotide; 5-methylcytidines; (2)..(2) 2′-Deoxy-5-methylcytidine; (5)..(5) 2′-Deoxy-5-methylcytidine; misc_difference (8)..(8) LNA; (11)..(11) 2′-Deoxy-5-methylcytidine; (13)..(13) 2′-Deoxy-5-methylcytidine)
ΔTm/mod. [1]: +6.0 °C | Tm [1]: 37 °C

5′ -TCTTCTTZTTCTCT-3′: modified oligonucleotide with one Z modification; C shows 2′-deoxy-5-methylcytidine (DNA TCTTCTTTTTCTCT; Z modified nucleotide; 5-methylcytidines; (2)..(2) 2′-Deoxy-5-methylcytidine; (5)..(5) 2′-Deoxy-5-methylcytidine; misc_difference (8)..(8) ENA; (11)..(11) 2′-Deoxy-5-methylcytidine; (13)..(13) 2′-Deoxy-5-methylcytidine)
ΔTm/mod. [1]: +5.0 °C | Tm [1]: 36 °C

5′ -TCTTCTXXXTCTCT-3′: modified oligonucleotide with three consecutive X modifications (DNA TCTTCTTTTTCTCT; three X modified nucleotides; (2)..(2) 2′-Deoxy-5-methylcytidine; (5)..(5) 2′-Deoxy-5-methylcytidine; misc_difference (7)..(7) Me-TaNA; misc_difference (8)..(8) Me-TaNA; misc_difference (9)..(9) Me-TaNA; (11)..(11) 2′-Deoxy-5-methylcytidine; (13)..(13) 2′-Deoxy-5-methylcytidine)
ΔTm/mod. [1]: +6.3 °C | Tm [1]: 50 °C

5′ -TCTTCTYYYTCTCT-3′: modified oligonucleotide with three consecutive Y modifications (DNA TCTTCTTTTTCTCT; three Y modified nucleotides; (2)..(2) 2′-Deoxy-5-methylcytidine; (5)..(5) 2′-Deoxy-5-methylcytidine; misc_difference (7)..(7) LNA; misc_difference (8)..(8) LNA; misc_difference (9)..(9) LNA; (11)..(11) 2′-Deoxy-5-methylcytidine; (13)..(13) 2′-Deoxy-5-methylcytidine)
ΔTm/mod. [1]: +5.0 °C | Tm [1]: 46 °C

5′ -TCTTCTZZZTCTCT-3′: modified oligonucleotide with three consecutive Z modifications (DNA TCTTCTTTTTCTCT; three Z modified nucleotides; (2)..(2) 2′-Deoxy-5-methylcytidine; (5)..(5) 2′-Deoxy-5-methylcytidine; misc_difference (7)..(7) ENA; misc_difference (8)..(8) ENA; misc_difference (9)..(9) ENA; (11)..(11) 2′-Deoxy-5-methylcytidine; (13)..(13) 2′-Deoxy-5-methylcytidine)
ΔTm/mod. [1]: +5.7 °C | Tm [1]: 48 °C

5′ -TCTTCXTXTXCTCT-3′: modified oligonucleotide with three separated X modifications (DNA TCTTCTTTTTCTCT; three X modified nucleotides; (2)..(2) 2′-Deoxy-5-methylcytidine; (5)..(5) 2′-Deoxy-5-methylcytidine; misc_difference (6)..(6) Me-TaNA; misc_difference (8)..(8) Me-TaNA; misc_difference (10)..(10) Me-TaNA; (11)..(11) 2′-Deoxy-5-methylcytidine; (13)..(13) 2′-Deoxy-5-methylcytidine)
ΔTm/mod. [1]: +7.3 °C | Tm [1]: 53 °C

5′ -TCTTCYTYTYCTCT-3′: modified oligonucleotide with three separated Y modifications (DNA TCTTCTTTTTCTCT; three Y modified nucleotides; (2)..(2) 2′-Deoxy-5-methylcytidine; (5)..(5) 2′-Deoxy-5-methylcytidine; misc_difference (6)..(6) LNA; misc_difference (8)..(8) LNA; misc_difference (10)..(10) LNA; (11)..(11) 2′-Deoxy-5-methylcytidine; (13)..(13) 2′-Deoxy-5-methylcytidine)
ΔTm/mod. [1]: +6.7 °C | Tm [1]: 51 °C

5′ -TCTTCZTZTZCTCT-3′: modified oligonucleotide with three separated Z modifications (DNA TCTTCTTTTTCTCT; three Z modified nucleotides; (2)..(2) 2′-Deoxy-5-methylcytidine; (5)..(5) 2′-Deoxy-5-methylcytidine; misc_difference (6)..(6) ENA; misc_difference (8)..(8) ENA; misc_difference (10)..(10) ENA; (11)..(11) 2′-Deoxy-5-methylcytidine; (13)..(13) 2′-Deoxy-5-methylcytidine)
ΔTm/mod. [1]: +6.7 °C | Tm [1]: 51 °C

5′-GGATGXXCTCGT-3′: modified oligonucleotide with two consecutive X modifications (DNA GGATGTTCTCGT; DNA oligonucleotide with modified nucleotide X, X not given here, further chemistry not given here)
Tm [2]: 66 °C | ΔTm/mod. [2]: +7.0 °C | Tm [3]: 58 °C | ΔTm/mod. [3]: +3.5 °C

5′-GGATGYYCTCGT-3′: modified oligonucleotide with two consecutive Y modifications (DNA GGATGTTCTCGT; two Y modified nucleotides; misc_difference (6)..(6) LNA; misc_difference (7)..(7) LNA)
Tm [2]: 64 °C | ΔTm/mod. [2]: +6.0 °C | Tm [3]: 57 °C | ΔTm/mod. [3]: +3.0 °C

5′-GGATGZZCTCGT-3′: modified oligonucleotide with two consecutive Z modifications (DNA GGATGTTCTCGT; two Z modified nucleotides; misc_difference (6)..(6) ENA; misc_difference (7)..(7) ENA)
Tm [2]: 64 °C | ΔTm/mod. [2]: +6.0 °C | Tm [3]: 57 °C | ΔTm/mod. [3]: +3.0 °C

5′-GGAXGXTCTCGT-3′: modified oligonucleotide with two separated X modifications (DNA GGATGTTCTCGT; DNA oligonucleotide with modified nucleotide X, X not given here, further chemistry not given here)
Tm [2]: 66 °C | ΔTm/mod. [2]: +7.0 °C | Tm [3]: 58 °C | ΔTm/mod. [3]: +3.5 °C

5′-GGAYGYTCTCGT-3′: modified oligonucleotide with two separated Y modifications (DNA GGATGTTCTCGT; two Y modified nucleotides; misc_difference (4)..(4) LNA; misc_difference (6)..(6) LNA)
Tm [2]: 65 °C | ΔTm/mod. [2]: +6.5 °C | Tm [3]: 58 °C | ΔTm/mod. [3]: +3.5 °C

5′-GGAZGZTCTCGT-3′: modified oligonucleotide with two separated Z modifications (DNA GGATGTTCTCGT; two Z modified nucleotides; misc_difference (4)..(4) ENA; misc_difference (6)..(6) ENA)
Tm [2]: 65 °C | ΔTm/mod. [2]: +6.5 °C | Tm [3]: 57 °C | ΔTm/mod. [3]: +3.0 °C
